Common to all, as to assay type: cell-based, human
One test concerns r(G4C2)exp. Nature of the test: ASO-Bind-Map target profiling in patient-derived LCLs. As to conditions: ASO 100 nM. The protocol:
Target profiling by ASO-Bind-Map. LCLs were first treated with compounds overnight at 37° C. and then transfected with G4C2-ASO (100 nM; Table 3). The cells were then incubated for another 24 h at 37° C. followed by extraction of total RNA as described above. The levels of various fragments were then measured by RT-qPCR as described above.

The test system of another test is C9orf72 intron 1. Nature of the test: C9orf72 intron 1 RT-qPCR in LCLs from a healthy donor. The protocol:
(§1) Measuring Levels of C9orf72 and C9orf72 Variants by RT-qPCR. LCLs were seeded in 6-well plate (˜10^6 cells in 2 mL of growth medium) and incubated overnight at 37° C. Cells were then treated with various concentrations of compound for 24 h or with G4C2-ASO and Control-ASO (100 nM), delivered by transfection with Lipofectamine RNAiMax. RNA was extracted as described above and the expression of C9orf72 variants was determined by RT-qPCR. […] For compound treatment well, medium change was performed with fresh compound every 3-4 days. RNA was extracted as described above and the expression of C9orf72 variants was determined by RT-qPCR.

Test [1] deals with C9orf72 exon 1b transcripts lacking r(G4C2)exp. Nature of the test: C9orf72 exon 1b RT-qPCR in patient-derived LCLs. Conditions: any concentration. The protocol: as §1
(In qPCR the cycle at which signal appears reflects the starting amount.)

Here are results for two molecules from patent publication US20230381170A1, “METHOD FOR TREATING ALS/FTD THROUGH DEGRADATION OF RNA REPEAT EXPANSION” (University of Florida Research Foundation, Incorporated, priority 2020, published 2023).

The structures appear in SMILES notation.

In the case of `Cc1c2ccncc2c(C)c2c1[nH]c1ccc(OCCOCCOCCNCCOCCOCCOc3ccc4[nH]c5c(C)c6ccncc6c(C)c5c4c3)cc12` [Compound 3], the “intron 1 levels of C9orf72 mRNA in competition with G4C2-ASO” value in the test with r(G4C2)exp is given as “dose-dependent increase”.
For `CCOC(=O)C1=C(Nc2ccccc2)S/C(=C\c2ccc(OCCOCCOCCOCCNC(=O)CCC(=O)N(CCOCCOCCOc3ccc4[nH]c5c(C)c6ccncc6c(C)c5c4c3)CCOCCOCCOc3ccc4[nH]c5c(C)c6ccncc6c(C)c5c4c3)c(O)c2)C1=O` [Compound 7], the “C9orf72 intron 1 levels” value in the test on C9orf72 intron 1 is reported as “did not affect”. For the same molecule, in test [1], the “C9orf72 transcripts that lack r(G4C2)exp (exon 1b)” value was “no decrease”.
